US20110224252A1, “NOVEL IMIDAZOLE DERIVATIVES” (SYNGENTA CROP PROTECTION, INC., priority 2007, published 2011)

Assays:
Assay type in all cases: in vivo
Septoria tritici = Septoria tritici / wheat / preventive (action against Septoria leaf spot on wheat); settings: Zymoseptoria tritici, spray, wheat plants cv. Riband, assessed 16-18 days after inoculation, read-out: inhibits fungal infestation
Procedure: Septoria tritici/Wheat/Preventive (Action Against Septoria Leaf Spot on Wheat) 2 weeks old wheat plants cv. Riband are treated with the formulated test compound in a spray chamber. One day after application wheat plants are inoculated by spraying a spore suspension (10^6 conidia/ml) on the test plants. After an incubation period of 1 day at 22° C./21° C. and 95% r. h. plants are kept at 22° C./21° C. and 70% r.h. in a greenhouse. The disease incidence is assessed 16-18 days after inoculation.

Botrytis cinerea = Botrytis cinerea / tomato / preventive (action against Botrytis on tomato); settings: 72 h, spray, tomato plants cv. Roter Gnom, assessed 3 days after inoculation, read-out: inhibit fungal infestation
Procedure: (§1) Botrytis cinerea/Tomato/Preventive (Action Against Botrytis on Tomato) 4 weeks old tomato plants cv. Roter Gnom are treated with the formulated test compound in a spray chamber. Two days after application tomato plants are inoculated by spraying a spore suspension on the test plants. After an incubation period of 3 days at 20° C. and 95% r. h. in a greenhouse the disease incidence is assessed.

Alternaria solani = Alternaria solani / tomato / preventive (action against Alternaria on tomato); settings: 96 h, spray, tomato plants cv. Roter Gnom, assessed 4 days after inoculation, read-out: inhibit fungal infestation
Procedure: as §1, with “Alternaria solani/Tomato/Preventive” for “Botrytis cinerea/Tomato/Preventive”, “Alternaria” for “Botrytis”, “4” for “3”, “22° C./18°” for “20°”

Uncinula necator = Uncinula necator / grape / preventive (action against powdery mildew on grape); settings: Erysiphe necator, 168 h, spray, grape seedlings cv. Gutedel, assessed 7 days after inoculation, read-out: inhibit fungal infestation
Procedure: Uncinula necator/Grape/Preventive (Action Against Powdery Mildew on Grape) 5 weeks old grape seedlings cv. Gutedel are treated with the formulated test compound in a spray chamber. One day after application grape plants are inoculated by shaking plants infected with grape powdery mildew above the test plants. After an incubation period of 7 days at 24° C./22° C. and 70% r. h. under a light regime of 14/10 h (light/dark) the disease incidence is assessed.

Puccinia recondita = Puccinia recondita / wheat / preventive (action against brown rust on wheat); settings: 264 h, spray, wheat plants cv. Arina, assessed 11 days after inoculation, read-out: inhibit fungal infestation
Procedure: Puccinia recondita/Wheat/Preventive (Action Against Brown Rust on Wheat) 1 week old wheat plants cv. Arina are treated with the formulated test compound in a spray chamber. One day after application wheat plants are inoculated by spraying a spore suspension ([…] uredospores/ml) on the test plants. After an incubation period of 1 day at 20° C. and 95% r. h. plants are kept for 10 days 20° C./18° C. (day/night) and 60% r.h. in a greenhouse. The disease incidence is assessed 11 days after inoculation.

Measured: inhibition at 200 ppm

Clc1cnc(-n2c(Cl)nc(Cl)c2-c2ccc(Br)cc2)c(Cl)c1 [I.s.034, 2-[5-(4-Bromo-phenyl)-2,4-dichloro-imidazol-1-yl]-3,5-dichloro-pyridine]
not listed: Puccinia recondita
≥ 80%: all other assays above

Cc1nc(Cl)n(-c2ncc(Cl)cc2Cl)c1-c1ccc(Br)cc1 [I.s.035, 2-[5-(4-Bromo-phenyl)-2-chloro-4-methyl-imidazol-1-yl]-3,5-dichloro-pyridine]
not listed: Botrytis cinerea
≥ 80%: all other assays above

Cc1nc(Cl)n(-c2ncc(Cl)cc2Cl)c1-c1ccc(Cl)nc1 [I.s.210, 3,5-Dichloro-2-[2-chloro-5-(6-chloro-pyridin-3-yl)-4-methyl-imidazol-1-yl]-pyridine]
≥ 80%: Septoria tritici | Alternaria solani | Uncinula necator
